From paper doi:10.1101/2021.06.18.449075v2, “Understanding the mechanism of monoADP ribosylation in OsSRT1 and its linkage to DNA repair system under stress conditions” (biorxiv, 2021)
Where two headings read alike, the source gives them in different places.

Assays:
[1] = target: T1, OsSRT1 (Oryza sativa, UniProt B8ARK7); assay: auto-ADP-ribosylation, anti-biotin western blot; type: biochemical
T1 construct: gene SRT1; OsSRT1 gene (483 aa) in pET30a (BamHI/EcoRI), His-tagged, E. coli BL21(DE3), HisTrap purified; tag removal not mentioned
T1 sequence (B8ARK7 1-483): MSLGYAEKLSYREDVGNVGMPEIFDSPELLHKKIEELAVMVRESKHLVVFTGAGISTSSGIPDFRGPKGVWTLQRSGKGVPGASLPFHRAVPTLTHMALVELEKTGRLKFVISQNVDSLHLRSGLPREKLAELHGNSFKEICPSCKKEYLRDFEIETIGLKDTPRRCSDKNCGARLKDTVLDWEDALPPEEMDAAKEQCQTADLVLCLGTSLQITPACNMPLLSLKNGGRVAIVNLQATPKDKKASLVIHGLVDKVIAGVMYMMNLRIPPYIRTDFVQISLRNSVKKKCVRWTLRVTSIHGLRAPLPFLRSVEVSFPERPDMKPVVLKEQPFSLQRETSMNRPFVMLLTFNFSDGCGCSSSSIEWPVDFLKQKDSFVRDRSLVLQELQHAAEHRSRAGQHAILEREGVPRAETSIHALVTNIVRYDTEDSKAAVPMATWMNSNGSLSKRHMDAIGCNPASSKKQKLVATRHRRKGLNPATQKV

[2] = target: T1, OsSRT1; assay: auto-ADP-ribosylation, anti-biotin dot blot, Michaelis-Menten fit; type: biochemical; details: 6 nM OsSRT1, 0-100 µM Bio-NAD+, pH 7.5, 25°C; auto-ADPr without H3; labelled compound

Compound	IC50 [1] [µM]	further results
O=C(O)c1cccnc1 [nicotinic acid]	32 ± 4	–
Nc1ncnc2c1ncn2[C@@H]1O[C@H](COP(=O)(O)OP(=O)(O)OC[C@H]2OC(O)[C@H](O)[C@@H]2O)[C@@H](O)[C@H]1O (stereo partly shown) [ADP-ribose]	–	IC50 ([1]; auto-ADPr with Bio-NAD+, standard buffer 50 mM Tris pH 7.5, 150 mM NaCl, 10 mM DTT, 75 μM NAD+, 40 μM Bio-NAD+, 25°C, 1 h, product inhibition): 18 ± 4 µM
Bio-NAD^+	–	Km [2]: 37.4 ± 4 µM
NC(=O)c1cccnc1 [nicotinamide]	26 ± 2	–
